In paper PMC9668969 (Nature Communications, 2022):
Values joined by “and” are separate entries in the source; they are usually repeats but may differ in a detail not shown here. Equal values may be shown once. Read-outs that look alike come from different tables or passages of the source.

Test system: WT ELIC
Experiment: Fluorescence stopped-flow liposomal Tl+ flux assay, symmetric liposomes
Type: biochemical, Erwinia chrysanthemi
Parameters: Tl+ flux quenching rate, Avg. / Tl+ flux quenching rate: unit not given here
Conditions: for time constant of activation by Tl+ flux: 10 mM propylamine; for EC50: read-out: EC50 of peak Tl+ flux rate; for Rate (stopped-flow fluorescence quenching rate) / Avg (stopped-flow fluorescence quenching rate): WT in 2:1:1 PC:PE:PG liposomes; for Rate (stopped-flow fluorescence quenching rate): single experiments; for Avg (stopped-flow fluorescence quenching rate): average of experiments
Procedure: The fluorescence sequential-mixing stopped-flow liposomal flux measurements were carried using an SX20 stopped-flow spectrofluorometer (Applied Photophysics) and Pro-Data SX software[13],[30]. 7.5 mg of the respective lipid mixture (POPC, 1:1 POPC: POPE, 1:1 POPC:POPG, 3:1 POPC:POPE, 3:1 POPC:POPG, 2:1:1 POPC:POPE:POPG) was dried in a glass vial to a thin film under a constant stream of N2. The lipids were then further dried under vacuum in a desiccator overnight. The following day the lipids were hydrated in 500 µl of reconstitution buffer (100 mM NaNO3, 10 mM HEPES, pH 7) (Buffer R), 250 µl of 75 mM 8-Aminonaphthalene-1,3,6-Trisulfonic Acid (ANTS, ThermoFisher Scientific) in buffer R, and doped with ~18 mg of CHAPS (Anatrace). The mixture was vortexed and then sonicated with heat until completely solubilized. Following the sonication, the solution was brought to RT then 3.5 µl of 6.7 mg/ml ELIC in Buffer A with 0.02% DDM was added (3 µg per mg of lipid). This combined solution was incubated at RT for 30 min, followed by the addition of 1 ml of 1:1 v/v SM-2 BioBeads in Buffer R and an additional 250 µl of 75 mM ANTS in Buffer R. This mixture was incubated at RT for 2.5 hr with gentle mixing. The liposome suspension was then extruded with an Avanti mini-extruder and 0.1 µm membrane (30×). The extruded liposomes were stored at 13 °C overnight with gentle rotation. The next day, the liposomes were diluted to 2.5 mL using assay buffer (140 mM NaNO3, 10 mM HEPES, pH 7) (Stopped-flow Buffer A), loaded into a PD-10 desalting column (Cytiva), eluted with 3 mL of Stopped-flow Buffer A and subsequently diluted 5-fold with Stopped-flow Buffer A.
Using propylamine as the agonist, the assay and analysis was carried out as previously described[13],[30]. ELIC-containing liposomes were first mixed 1:1 with Buffer A containing 2× the concentration of propylamine. After a variable delay of 10 ms to 25 s, the sample was then mixed 1:1 with a quenching buffer (90 mM NaNO3, 50 mM TlNO3, 10 mM HEPES, pH 7), and ANTS fluorescence (ex. 360 nm, fluorescence above 420 nm) was recorded for 1 s. For each delay time, 5 repeat measurements were obtained. The data were collected using Applied Photophysics Pro-Data SX software. The fluorescence quenching traces were fit to a stretched exponential (Eq. 2a) and the rate of Tl^+ influx was determined at 2 ms (Eq. 2b).2a Ft=F∞+F0−F∞⋅e^−t/τ^β 2b kt=β/τ⋅2ms/τ^(β−1) where Ft, F∞, F0 are the fluorescence at time t, final fluorescence and initial fluorescence. τ is the time constant, β the stretched exponential factor, and kt the calculated rate of Tl^+ influx at 2 ms. The time course of desensitization was also fit to a double exponential and a weighted time constant was calculated as was done for the patch-clamp data using Origin 2019b. All replicates were taken from independent samples.

CCCN [propylamine]
time constant of activation by Tl+ flux (2:1:1 liposomes): 41 ± 34 ms
time constant of activation by Tl+ flux (POPC liposomes): 20 ± 6 ms
EC50 (2:1:1 POPC:POPE:POPG liposomes, no BaCl2, Hill fit): 2400 µM and ~2000 µM
Hill n of peak Tl+ flux dose response (2:1:1 liposomes): 2.2 ± 0.7
Hill n of peak Tl+ flux dose response (POPC liposomes): 3.6 ± 0.6
EC50 (POPC liposomes, Hill fit): 4300 ± 1400 µM
Tl+ flux quenching rate, Avg. (WT 1:1 PC:PE 10 mM PA, delay 0.01 s): 12.8731
Tl+ flux quenching rate, Avg. (WT 1:1 PC:PE 10 mM PA, delay 0.025 s): 18.7932
Tl+ flux quenching rate, Avg. (WT 1:1 PC:PE 10 mM PA, delay 0.05 s): 16.1105
Tl+ flux quenching rate, Avg. (WT 1:1 PC:PE 10 mM PA, delay 0.1 s): 21.9541
Tl+ flux quenching rate, Avg. (WT 1:1 PC:PE 10 mM PA, delay 0.25 s): 19.0107
Tl+ flux quenching rate, Avg. (WT 1:1 PC:PE 10 mM PA, delay 0.5 s): 18.8714
Tl+ flux quenching rate, Avg. (WT 1:1 PC:PE 10 mM PA, delay 1 s): 13.7475
Tl+ flux quenching rate, Avg. (WT 1:1 PC:PE 10 mM PA, delay 2.5 s): 11.8878
Tl+ flux quenching rate, Avg. (WT 1:1 PC:PE 10 mM PA, delay 5 s): 9.713
Tl+ flux quenching rate, Avg. (WT 1:1 PC:PE 10 mM PA, delay 10 s): 6.252
Tl+ flux quenching rate, Avg. (WT 1:1 PC:PE 10 mM PA, delay 25 s): 0.8964
Tl+ flux quenching rate, Avg. (WT 1:1 PC:PG 10 mM PA, delay 0.01 s): 3.795
Tl+ flux quenching rate, Avg. (WT 1:1 PC:PG 10 mM PA, delay 0.025 s): 9.924
Tl+ flux quenching rate, Avg. (WT 1:1 PC:PG 10 mM PA, delay 0.05 s): 11.1292
Tl+ flux quenching rate, Avg. (WT 1:1 PC:PG 10 mM PA, delay 0.1 s): 12.6513
Tl+ flux quenching rate, Avg. (WT 1:1 PC:PG 10 mM PA, delay 0.25 s): 13.2242
Tl+ flux quenching rate, Avg. (WT 1:1 PC:PG 10 mM PA, delay 0.5 s): 14.1908
Tl+ flux quenching rate, Avg. (WT 1:1 PC:PG 10 mM PA, delay 1 s): 14.7233
Tl+ flux quenching rate, Avg. (WT 1:1 PC:PG 10 mM PA, delay 2.5 s): 12.796
Tl+ flux quenching rate, Avg. (WT 1:1 PC:PG 10 mM PA, delay 5 s): 11.2973
Tl+ flux quenching rate, Avg. (WT 1:1 PC:PG 10 mM PA, delay 10 s): 8.515
Tl+ flux quenching rate, Avg. (WT 1:1 PC:PG 10 mM PA, delay 25 s): 1.356
Tl+ flux quenching rate, Avg. (WT 2:1:1 PC:PE:PG 10 mM PA, delay 0.01 s): 108.066
Tl+ flux quenching rate, Avg. (WT 2:1:1 PC:PE:PG 10 mM PA, delay 0.025 s): 129.134
Tl+ flux quenching rate, Avg. (WT 2:1:1 PC:PE:PG 10 mM PA, delay 0.05 s): 140.06
Tl+ flux quenching rate, Avg. (WT 2:1:1 PC:PE:PG 10 mM PA, delay 0.1 s): 141.696
Tl+ flux quenching rate, Avg. (WT 2:1:1 PC:PE:PG 10 mM PA, delay 0.25 s): 158.52
Tl+ flux quenching rate, Avg. (WT 2:1:1 PC:PE:PG 10 mM PA, delay 0.5 s): 169.325
Tl+ flux quenching rate, Avg. (WT 2:1:1 PC:PE:PG 10 mM PA, delay 1 s): 150.743
Tl+ flux quenching rate, Avg. (WT 2:1:1 PC:PE:PG 10 mM PA, delay 2.5 s): 114.107
Tl+ flux quenching rate, Avg. (WT 2:1:1 PC:PE:PG 10 mM PA, delay 5 s): 89.8389
Tl+ flux quenching rate, Avg. (WT 2:1:1 PC:PE:PG 10 mM PA, delay 10 s): 66.5759
Tl+ flux quenching rate, Avg. (WT 2:1:1 PC:PE:PG 10 mM PA, delay 25 s): 19.0264
Tl+ flux quenching rate, Avg. (WT 3:1 PC:PE 10 mM PA, delay 0.01 s): 13.3934
Tl+ flux quenching rate, Avg. (WT 3:1 PC:PE 10 mM PA, delay 0.025 s): 16.8702
Tl+ flux quenching rate, Avg. (WT 3:1 PC:PE 10 mM PA, delay 0.05 s): 17.8262
Tl+ flux quenching rate, Avg. (WT 3:1 PC:PE 10 mM PA, delay 0.1 s): 25.5678
Tl+ flux quenching rate, Avg. (WT 3:1 PC:PE 10 mM PA, delay 0.25 s): 25.5466
Tl+ flux quenching rate, Avg. (WT 3:1 PC:PE 10 mM PA, delay 0.5 s): 29.8205
Tl+ flux quenching rate, Avg. (WT 3:1 PC:PE 10 mM PA, delay 1 s): 23.2733
Tl+ flux quenching rate, Avg. (WT 3:1 PC:PE 10 mM PA, delay 2.5 s): 17.3881
Tl+ flux quenching rate, Avg. (WT 3:1 PC:PE 10 mM PA, delay 5 s): 8.6052
Tl+ flux quenching rate, Avg. (WT 3:1 PC:PE 10 mM PA, delay 10 s): 3.015
Tl+ flux quenching rate, Avg. (WT 3:1 PC:PE 10 mM PA, delay 25 s): 0.5341
Tl+ flux quenching rate, Avg. (WT 3:1 PC:PG 10 mM PA, delay 0.01 s): 3.538
Tl+ flux quenching rate, Avg. (WT 3:1 PC:PG 10 mM PA, delay 0.025 s): 5.637
Tl+ flux quenching rate, Avg. (WT 3:1 PC:PG 10 mM PA, delay 0.05 s): 6.577
Tl+ flux quenching rate, Avg. (WT 3:1 PC:PG 10 mM PA, delay 0.1 s): 5.156
Tl+ flux quenching rate, Avg. (WT 3:1 PC:PG 10 mM PA, delay 0.25 s): 10.2935
Tl+ flux quenching rate, Avg. (WT 3:1 PC:PG 10 mM PA, delay 0.5 s): 10.5897
Tl+ flux quenching rate, Avg. (WT 3:1 PC:PG 10 mM PA, delay 1 s): 10.9346
Tl+ flux quenching rate, Avg. (WT 3:1 PC:PG 10 mM PA, delay 2.5 s): 9.589
Tl+ flux quenching rate, Avg. (WT 3:1 PC:PG 10 mM PA, delay 5 s): 8.149
Tl+ flux quenching rate, Avg. (WT 3:1 PC:PG 10 mM PA, delay 10 s): 1.496
Tl+ flux quenching rate, Avg. (WT 3:1 PC:PG 10 mM PA, delay 25 s): 1.028
Tl+ flux quenching rate, Avg. (WT PC 10 mM PA, delay 0.01 s): 3.242
Tl+ flux quenching rate, Avg. (WT PC 10 mM PA, delay 0.025 s): 7.793
Tl+ flux quenching rate, Avg. (WT PC 10 mM PA, delay 0.05 s): 10.0904
Tl+ flux quenching rate, Avg. (WT PC 10 mM PA, delay 0.1 s): 10.8806
Tl+ flux quenching rate, Avg. (WT PC 10 mM PA, delay 0.25 s): 11.6946
Tl+ flux quenching rate, Avg. (WT PC 10 mM PA, delay 1 s): 9.9293
Tl+ flux quenching rate, Avg. (WT PC 10 mM PA, delay 2.5 s): 4.516
Tl+ flux quenching rate, Avg. (WT PC 10 mM PA, delay 5 s): 0.8684
Tl+ flux quenching rate, Avg. (WT PC 10 mM PA, delay 10 s): 0.09487
Tl+ flux quenching rate, Avg. (WT PC 10 mM PA, delay 25 s): 0.1384
Tl+ flux quenching rate, Avg. (WT PC 10 mM PA, delay printed 0.05 (line r87, between 0.25 and 1)): 13.718
Rate (stopped-flow fluorescence quenching rate) (0.3 mM PA, delay time 0): 0
Avg (stopped-flow fluorescence quenching rate) (0.3 mM PA, delay time 0.025): 0.05393
Avg (stopped-flow fluorescence quenching rate) (0.3 mM PA, delay time 0.05): 0.1144
Avg (stopped-flow fluorescence quenching rate) (0.3 mM PA, delay time 0.1): 0.02985
Rate (stopped-flow fluorescence quenching rate) (0.3 mM PA, delay time 0.1, listed as PA): 0.02819 and 0.02444 and 0.03693
Avg (stopped-flow fluorescence quenching rate) (0.3 mM PA, delay time 0.25): 0.2226
Avg (stopped-flow fluorescence quenching rate) (0.3 mM PA, delay time 0.5): 0.07829
Rate (stopped-flow fluorescence quenching rate) (0.3 mM PA, delay time 0.5, listed as PA): 0.05209 and 0.08034 and 0.1024
Avg (stopped-flow fluorescence quenching rate) (0.3 mM PA, delay time 1): 0.1269
Avg (stopped-flow fluorescence quenching rate) (0.3 mM PA, delay time 2.5): 0.07966
Avg (stopped-flow fluorescence quenching rate) (0.3 mM PA, delay time 5): 0.1012
Avg (stopped-flow fluorescence quenching rate) (0.3 mM PA, delay time 10): 0.07302
Avg (stopped-flow fluorescence quenching rate) (0.3 mM PA, delay time 25): 0.144
Rate (stopped-flow fluorescence quenching rate) (0.3 mM PA, delay time 25, listed as PA): 0.1101 and 0.1736 and 0.1484
Rate (stopped-flow fluorescence quenching rate) (1 mM PA, delay time 0): 0
Avg (stopped-flow fluorescence quenching rate) (1 mM PA, delay time 0.025): 0.05821
Avg (stopped-flow fluorescence quenching rate) (1 mM PA, delay time 0.05): 0.3418
Avg (stopped-flow fluorescence quenching rate) (1 mM PA, delay time 0.1): 0.7543
Avg (stopped-flow fluorescence quenching rate) (1 mM PA, delay time 0.25): 9.601
Avg (stopped-flow fluorescence quenching rate) (1 mM PA, delay time 0.5): 9.433
Avg (stopped-flow fluorescence quenching rate) (1 mM PA, delay time 1): 13.1765
Avg (stopped-flow fluorescence quenching rate) (1 mM PA, delay time 2.5): 13.927
Avg (stopped-flow fluorescence quenching rate) (1 mM PA, delay time 5): 16.0207
Avg (stopped-flow fluorescence quenching rate) (1 mM PA, delay time 10): 13.7137
Avg (stopped-flow fluorescence quenching rate) (1 mM PA, delay time 25): 8.387
Rate (stopped-flow fluorescence quenching rate) (3 mM PA, delay time 0): 0
Avg (stopped-flow fluorescence quenching rate) (3 mM PA, delay time 0.05): 279.785
Avg (stopped-flow fluorescence quenching rate) (3 mM PA, delay time 0.1): 279.666
Avg (stopped-flow fluorescence quenching rate) (3 mM PA, delay time 0.25): 300.719
Avg (stopped-flow fluorescence quenching rate) (3 mM PA, delay time 0.5): 352.59
Avg (stopped-flow fluorescence quenching rate) (3 mM PA, delay time 1): 284.973
Avg (stopped-flow fluorescence quenching rate) (3 mM PA, delay time 2.5): 176.344
